One data set concerns the target T1, CECR2 (h) bromodomain (Homo sapiens, UniProt Q9BXF3).
T1 construct: CECR2(h) bromodomain
Nature of the data set: Epigenetic binding assay, Bromodomain. Conditions: for inhibition at 10 µM: read-out: % Inhibition of Control Specific Binding.

The next data set addresses CYP3A (Homo sapiens, UniProt P08684). Nature of the data set: Cytochrome P450 Inhibition (CYP panel). The conditions noted are these: probe testosterone; for inhibition at 1 µM: human liver microsomes; for inhibition at 10 µM: liver microsomes. Format: in vitro ADME. A general note: Liver microsomes are vesicles of endoplasmic reticulum, rich in cytochrome P450 enzymes.
The next data set concerns the target T2, TAF1(1) (h) bromodomain (Homo sapiens, UniProt P21675).
T2 construct: Bromodomain
T2 sequence (P21675 1397-1505 limits assumed): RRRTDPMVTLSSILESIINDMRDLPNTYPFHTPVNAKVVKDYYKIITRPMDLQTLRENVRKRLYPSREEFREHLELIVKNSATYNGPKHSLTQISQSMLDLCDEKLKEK
Nature of the data set: Epigenetic binding assay, Bromodomain. The conditions noted are these: 10 μM; read-out: % Inhibition of Control Specific Binding.

The next data set concerns H3K27 ac. In words: Cell-based detection methyl modifications. The conditions noted are these: read-out: % Inhibition of Control Values.
A further data set addresses T3, JMJD2A (h) (Homo sapiens, UniProt O75164).
T3 sequence (O75164 1-1064): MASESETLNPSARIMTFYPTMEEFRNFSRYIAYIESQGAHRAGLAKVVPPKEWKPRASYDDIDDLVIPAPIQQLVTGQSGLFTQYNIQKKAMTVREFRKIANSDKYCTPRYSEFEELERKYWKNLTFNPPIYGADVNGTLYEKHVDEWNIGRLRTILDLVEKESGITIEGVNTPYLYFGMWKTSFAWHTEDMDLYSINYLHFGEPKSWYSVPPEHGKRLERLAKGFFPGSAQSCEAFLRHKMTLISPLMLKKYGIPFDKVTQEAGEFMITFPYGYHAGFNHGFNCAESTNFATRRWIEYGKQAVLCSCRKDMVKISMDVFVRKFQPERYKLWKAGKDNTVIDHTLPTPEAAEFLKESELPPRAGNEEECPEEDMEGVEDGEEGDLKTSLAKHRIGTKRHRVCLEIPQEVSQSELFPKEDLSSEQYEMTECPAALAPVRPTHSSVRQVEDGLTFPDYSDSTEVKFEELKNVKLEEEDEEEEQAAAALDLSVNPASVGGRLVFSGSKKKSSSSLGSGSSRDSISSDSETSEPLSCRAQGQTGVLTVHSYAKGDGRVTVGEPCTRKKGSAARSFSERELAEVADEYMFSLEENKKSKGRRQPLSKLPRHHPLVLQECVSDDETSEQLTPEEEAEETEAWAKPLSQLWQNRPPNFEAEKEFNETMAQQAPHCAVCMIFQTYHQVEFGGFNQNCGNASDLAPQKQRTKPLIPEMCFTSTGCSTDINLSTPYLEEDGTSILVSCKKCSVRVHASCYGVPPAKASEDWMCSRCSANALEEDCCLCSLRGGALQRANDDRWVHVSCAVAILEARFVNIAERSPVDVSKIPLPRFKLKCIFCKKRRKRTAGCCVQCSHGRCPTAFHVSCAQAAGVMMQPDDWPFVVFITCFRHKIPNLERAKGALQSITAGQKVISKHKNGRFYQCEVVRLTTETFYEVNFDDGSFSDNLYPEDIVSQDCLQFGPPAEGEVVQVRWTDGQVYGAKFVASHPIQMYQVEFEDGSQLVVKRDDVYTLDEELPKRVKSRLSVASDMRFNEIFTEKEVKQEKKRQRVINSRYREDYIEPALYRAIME
Nature of the data set: Epigenetic enzyme assay, Demethylases (KDMs). Format: biochemical. Conditions: read-out: % Inhibition of Control Values.

Data set [1] concerns the target T4, Protein Tyrosine Phosphatase, PTPN1 (PTP1B) (Homo sapiens, UniProt P18031).
T4 construct: host or cells: E. coli
T4 sequence (P18031 1-435): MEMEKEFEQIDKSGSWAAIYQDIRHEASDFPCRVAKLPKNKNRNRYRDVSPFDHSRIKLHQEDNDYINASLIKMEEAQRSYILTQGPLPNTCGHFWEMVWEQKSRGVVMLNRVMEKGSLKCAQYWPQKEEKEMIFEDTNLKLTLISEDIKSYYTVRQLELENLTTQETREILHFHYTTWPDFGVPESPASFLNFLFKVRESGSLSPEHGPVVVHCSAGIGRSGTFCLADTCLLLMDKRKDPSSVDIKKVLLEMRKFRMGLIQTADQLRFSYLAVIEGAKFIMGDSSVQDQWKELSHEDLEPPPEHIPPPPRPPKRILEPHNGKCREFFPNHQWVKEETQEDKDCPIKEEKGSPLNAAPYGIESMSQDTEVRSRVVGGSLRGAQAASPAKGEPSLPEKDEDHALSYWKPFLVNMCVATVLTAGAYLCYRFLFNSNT
In words: Protein Tyrosine Phosphatase, PTPN1 (PTP1B). Format: biochemical. The conditions noted are these: assay year 2015, read-out: % Control Response. The protocol:
(§1) The in vitro pharmacological studies were conducted by Eurofins PanLab (Taiwan) using the parameters shown in Table 13 with respect to appropriate literature references.

In the next data set the target is T5, Histamine H4 (Homo sapiens, UniProt Q9H3N8).
T5 construct: expressed in transfected cells; host or cells: Chem-1 cells
Nature of the data set: Histamine H4 radio ligand binding. The protocol: as §1

The next data set addresses T6, JMJD2E (h) (Homo sapiens, UniProt B2RXH2).
T6 sequence (B2RXH2 1-506): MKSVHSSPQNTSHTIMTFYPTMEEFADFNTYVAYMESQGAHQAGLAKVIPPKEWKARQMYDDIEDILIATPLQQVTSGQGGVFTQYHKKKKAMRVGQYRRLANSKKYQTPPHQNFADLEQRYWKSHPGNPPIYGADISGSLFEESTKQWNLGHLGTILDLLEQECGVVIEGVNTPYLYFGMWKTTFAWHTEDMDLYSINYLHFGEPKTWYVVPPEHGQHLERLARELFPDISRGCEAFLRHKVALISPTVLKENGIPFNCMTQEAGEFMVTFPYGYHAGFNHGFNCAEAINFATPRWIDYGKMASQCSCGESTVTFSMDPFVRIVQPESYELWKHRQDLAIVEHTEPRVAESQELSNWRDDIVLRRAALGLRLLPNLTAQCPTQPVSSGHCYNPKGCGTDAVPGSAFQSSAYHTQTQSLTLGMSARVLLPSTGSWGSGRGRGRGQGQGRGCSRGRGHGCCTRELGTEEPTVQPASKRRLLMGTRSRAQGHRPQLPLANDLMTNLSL
Nature of the data set: Epigenetic enzyme assay, Demethylases (KDMs). The conditions noted are these: for inhibition at 10 µM: read-out: % Inhibition of Control Values. Format: biochemical.

The target of the next data set is T7, CBX4 (h) chromodomain (Homo sapiens, UniProt O00257).
T7 construct: Recognition and specificity determinants of the human cbx chromodomains; Eurofins CEREP (France), contract laboratory
T7 sequence (O00257 11-69 limits assumed): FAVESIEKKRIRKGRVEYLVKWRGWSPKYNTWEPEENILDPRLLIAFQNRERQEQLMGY
Nature of the data set: Epigenetic binding assay, Chromodomain. The conditions noted are these: read-out: % Inhibition of Control Specific Binding.

The mark [2] stands for this setting: CYP3A (testosterone sub.), Human liver microsomes, read-out: % Inhibition of Control Values.
The mark [3] stands for this setting: assay year 2014, read-out: % Control Response.
Where [4] appears, read: assay year 2015, read-out: % Control Response.

A word on the inhibition: it is the drop in the measured response relative to a control, in per cent. The term IC50 denotes the midpoint of a concentration-inhibition curve. A lower IC50 goes with greater potency.

Read-outs that look alike come from different tables or passages of the source.

T5 sequence (Q9H3N8 whole entry): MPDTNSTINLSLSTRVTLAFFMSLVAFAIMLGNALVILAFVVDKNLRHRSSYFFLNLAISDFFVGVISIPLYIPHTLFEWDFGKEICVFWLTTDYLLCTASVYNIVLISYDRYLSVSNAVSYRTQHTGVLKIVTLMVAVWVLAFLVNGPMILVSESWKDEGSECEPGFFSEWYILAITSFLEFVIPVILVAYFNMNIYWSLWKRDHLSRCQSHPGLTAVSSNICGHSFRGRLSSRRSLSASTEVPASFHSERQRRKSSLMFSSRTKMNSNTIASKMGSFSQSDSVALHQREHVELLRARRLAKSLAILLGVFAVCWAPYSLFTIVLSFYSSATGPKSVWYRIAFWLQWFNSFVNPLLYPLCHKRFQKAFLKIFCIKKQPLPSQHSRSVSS
Chain of CYP3A (P08684 2-503): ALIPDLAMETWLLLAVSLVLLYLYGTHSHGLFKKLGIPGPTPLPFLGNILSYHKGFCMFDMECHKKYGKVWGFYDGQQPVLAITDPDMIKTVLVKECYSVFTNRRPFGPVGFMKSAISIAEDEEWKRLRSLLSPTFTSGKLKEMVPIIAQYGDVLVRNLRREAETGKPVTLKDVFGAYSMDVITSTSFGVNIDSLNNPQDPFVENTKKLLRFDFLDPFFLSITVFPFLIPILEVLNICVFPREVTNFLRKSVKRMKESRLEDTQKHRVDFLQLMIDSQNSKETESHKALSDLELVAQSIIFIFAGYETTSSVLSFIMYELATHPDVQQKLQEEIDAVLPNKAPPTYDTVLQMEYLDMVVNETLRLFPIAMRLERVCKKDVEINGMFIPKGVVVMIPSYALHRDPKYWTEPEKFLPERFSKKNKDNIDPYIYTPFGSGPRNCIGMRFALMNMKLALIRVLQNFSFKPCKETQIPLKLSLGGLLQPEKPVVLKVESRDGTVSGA
T1 sequence (Q9BXF3 434-538 limits assumed): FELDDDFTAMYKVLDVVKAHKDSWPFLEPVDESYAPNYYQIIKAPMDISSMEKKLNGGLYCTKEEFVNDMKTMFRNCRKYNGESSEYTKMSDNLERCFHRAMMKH

In the case of `CC(C)=CCC[C@@H]1C(O)Oc2c(C)cc(O)c3c2[C@H]1CC[C@H]3C` (stereo partly drawn) [Compound 2, 5,18-epoxyserrulat-14-en-8,18-diol], the inhibition at 10 µM at CECR2 (h) bromodomain (10 μM) is 25%; at CYP3A (setting [2]), 57%; at TAF1(1) (h) bromodomain, 17%; in the data set with H3K27 ac it was -12%; at JMJD2A (h) it was -10%; on JMJD2E (h) (10 μM), 10%. For the same compound, the inhibition at 10 µM at CBX4 (h) chromodomain came out at 29%. For the same compound, the inhibition at 1 µM was 7 to 20% at CYP3A (read-out: % inhibition) and 17% at CYP3A (setting [2]). Moreover, the remaining activity at 10 µM was 3% in data set [1], 16% on Histamine H4 (setting [3]) and -1% at Histamine H4 (setting [4]).

Consider `CC(C)=CCC[C@@H]1COc2c(C)cc(O)c3c2[C@H]1CC[C@H]3C` [Compound 3, 5,18-epoxy-8-hydroxyserrulat-14-ene], for which the inhibition at 10 µM is 15% at CECR2 (h) bromodomain (10 μM); 17% on TAF1(1) (h) bromodomain; -11% in the data set on H3K27 ac; 12% at JMJD2A (h); 6% at JMJD2E (h) (10 μM); 40% at CBX4 (h) chromodomain. Further, the remaining activity at 10 µM in [1] was -3%; at Histamine H4 (setting [4]), 10%.

For the compound `CC(C)=CCC[C@H](CO)[C@@H]1CC[C@@H](C)c2c1cc(C)c(O)c2O` [Compound 1, 7,8,18-trihydroxyserrulat-14-ene], at CECR2 (h) bromodomain (10 μM), the “% Inhibition of Control Specific Binding” value is given as “significant inhibitory activity”. Besides, the inhibition at 10 µM on CECR2 (h) bromodomain (10 μM) was 100%; at CYP3A (setting [2]), 77%; at TAF1(1) (h) bromodomain, 48%; in the data set on H3K27 ac, -16%; on JMJD2A (h), 29%; at JMJD2E (h) (10 μM) it was 65%. Besides, the inhibition at 10 µM on CBX4 (h) chromodomain was 25%. Also, the “inhibition of binding, 1st” value at CECR2 (h) bromodomain (3.0E−05M) is reported as 99.4; at CECR2 (h) bromodomain (3.0E−06M), 7.3; on CECR2 (h) bromodomain (3.0E−07M), −1.5; at CECR2 (h) bromodomain (3.0E−08M), −0.9; on CECR2 (h) bromodomain (3.0E−09M), 5.9. The “inhibition of binding, 2nd” value at CECR2 (h) bromodomain (3.0E−05M) is 99.6; at CECR2 (h) bromodomain (3.0E−06M) it was 8.6; on CECR2 (h) bromodomain (3.0E−07M), 0.9; at CECR2 (h) bromodomain (3.0E−08M), −1.7; at CECR2 (h) bromodomain (3.0E−09M), 2.4. Further, the “inhibition of binding, Mean” value at CECR2 (h) bromodomain (3.0E−05M) is 99.5; at CECR2 (h) bromodomain (3.0E−06M) it was 7.9; at CECR2 (h) bromodomain (3.0E−07M) it was −0.3; on CECR2 (h) bromodomain (3.0E−08M), −1.3; on CECR2 (h) bromodomain (3.0E−09M) it was 4.2. The concentration for half-maximal inhibition (IC50) on CECR2 (h) bromodomain (Table 9, inhibition/concentration-response curve) turned out to be 5 µM; against JMJD2E (h) (Table 11, inhibition/concentration-response curve) it was 4.7 µM. Moreover, the results for the inhibition at 1 µM at CYP3A (read-out: % inhibition) and on CYP3A (setting [2]) were 7 to 20% and 7%, respectively. In addition, the remaining activity at 10 µM turned out to be 20% in [1], 50% at Histamine H4 (setting [3]) and 12% on Histamine H4 (setting [4]). For the same compound, the “% Inhibition of Control Values” on JMJD2E (h) (10 μM) was “significant inhibitory activity”.

On to `CC(C)=CCC[C@H](C)[C@@H]1CC[C@@H](C)c2c1cc(C)c(O)c2O` [Compound 4, 7,8-dihydroxyserrulat-14-ene], for which, at CYP3A (read-out: % inhibition), the inhibition at 1 µM lay within 7 to 20%. On CYP3A (setting [2]), the inhibition at 1 µM was determined as 20% and the inhibition at 10 µM came out at 48%.

The values are drawn from US11331299B2, “Medicinal use of serrulatane diterpenes” (The University of Sydney, priority 2016, dated 2022).
